Reference: paper PMC4718634, “Murine GPRC6A Mediates Cellular Responses to L-Amino Acids, but Not Osteocalcin Variants” (PLoS ONE, 2016)
“Also recorded” adds a separate entry of the source. Where two headings read alike, the source gives them in different places.

Key:
PC-3 cells = conditions: endogenous; ref [18] (supplement list); cited from earlier work
Text: (§1) Supplement pone.0146846.s004.docx, table 1 | column: Functional assay

mC6A = conditions: cited from earlier work
Text: as §1

GPRC6A = conditions: bind in the 7TM domain; ref [3], [4]; cited from earlier work
Text: GPRC6A is a class C G protein-coupled receptor (GPCR) that has been cloned from human, mouse and rat. The receptor was initially deorphanised by fusion of its large N-terminal domain to the heptahelical and C-terminal region of the related goldfish 5.24 receptor [1]. […] These ligands are thought to bind in the N-terminal domain of the receptor [2] in a manner analogous to the binding of L-glutamate to metabotropic glutamate receptors. Small molecules, ...

GLUTag cells [1] = experiment: GLP-1 release from GLUTag cells; assay type: cell-based, murine; conditions: NPS-2143 10 μM, 30 min pre-treatment; ^P < 0.05 vs L-ornithine alone; Fig 6A
Description: Intestinal L-cell model GLUTag cells were seeded in 24-well plates coated with Matrigel and incubated for 6 days in DMEM with 10% FBS, 100 U/ml penicillin, 100 μg/ml streptomycin at 37°C in 5% CO2 and grown for 4–5 days. Where indicated, cells were washed (1 or 2 x 1h) with Krebs-HEPES buffer (20 mM HEPES, 118 mM NaCl, 4.7 mM KCl, 1.2 mM MgSO4, 5 mM NaHCO3, 1.2 mM KH2PO4, 2.5 mM CaCl2, 5.5 mM glucose, 0.2% BSA (w/v), pH 7.2) containing vildagliptin (300 μM) prior to addition of test compounds in the same buffer. After 2 h incubation at 37°C in 5% CO2, the supernatant was recovered and centrifuged at 500 rpm for 5 min. Where used, NPS-2143 pre-treatment was for 30 min.
GLP-1 content in the cell supernatant was measured by ELISA (EGLP-35K, Millipore), according to manufacturer’s instructions after overnight incubation of 15 μl supernatant in 100 μl Krebs-HEPES buffer at 4°C. After 5 x washes, 200 μl of detection conjugate was added and incubated for 2 h at RT. After 3 x washes the reaction was developed with 200 μl of diluted substrate (1:200) for 20 min and terminated by addition of 50 μl stop solution. After 5 min, fluorescence was then measured using 355 nm excitation and 460 nm emission, transforming the obtained signal into pmol GLP-1/well/ml and corrected for GLUTag cell protein content as determined using the method of Bradford (1976).
(§2) Concentration-response data were analysed using a three or four parameter logistic function (Motulsky & Christopoulos, 2004) to generate estimates of agonist potency (LogEC50). Data for all HEK293 assays represent the mean ± SEM of at least three independent experiments (except cell impedance, n = 2). For GLP-1 release, the data represent mean ± SEM of three to five independent experiments (except for OCN, wash; n = 2). For insulin release assays, data represent the mean ± SEM of three independent experiments (except for islet studies; n = 2). Insulin release data were normalised to the response to vehicle in either low or high [glucose]. Statistical analysis for GLP-1 release data were performed by one-way ANOVA, followed by Sidak’s multiple comparisons test (treating wash / no wash datasets separately). Statistical analyses for insulin release data were performed by two-way ANOVA (with [glucose] and drug treatment as group variables), followed by Sidak’s multiple comparisons test. Where only high [glucose] groups were evaluated, statistical analysis was by one-way ANOVA followed by Sidak’s multiple comparisons test.

mGPRC6A (mouse GPRC6A) = target: T1, mGPRC6A (mouse GPRC6A) (Mus musculus, UniProt Q8K4Z6); experiment: Inositol phosphate (IP-One HTRF) accumulation, FlpIn-TREx-HEK293-mGPRC6A cells; assay type: cell-based; conditions: NPS-2143 30 μM; Fig 1C
T1 sequence (Q8K4Z6 21-928): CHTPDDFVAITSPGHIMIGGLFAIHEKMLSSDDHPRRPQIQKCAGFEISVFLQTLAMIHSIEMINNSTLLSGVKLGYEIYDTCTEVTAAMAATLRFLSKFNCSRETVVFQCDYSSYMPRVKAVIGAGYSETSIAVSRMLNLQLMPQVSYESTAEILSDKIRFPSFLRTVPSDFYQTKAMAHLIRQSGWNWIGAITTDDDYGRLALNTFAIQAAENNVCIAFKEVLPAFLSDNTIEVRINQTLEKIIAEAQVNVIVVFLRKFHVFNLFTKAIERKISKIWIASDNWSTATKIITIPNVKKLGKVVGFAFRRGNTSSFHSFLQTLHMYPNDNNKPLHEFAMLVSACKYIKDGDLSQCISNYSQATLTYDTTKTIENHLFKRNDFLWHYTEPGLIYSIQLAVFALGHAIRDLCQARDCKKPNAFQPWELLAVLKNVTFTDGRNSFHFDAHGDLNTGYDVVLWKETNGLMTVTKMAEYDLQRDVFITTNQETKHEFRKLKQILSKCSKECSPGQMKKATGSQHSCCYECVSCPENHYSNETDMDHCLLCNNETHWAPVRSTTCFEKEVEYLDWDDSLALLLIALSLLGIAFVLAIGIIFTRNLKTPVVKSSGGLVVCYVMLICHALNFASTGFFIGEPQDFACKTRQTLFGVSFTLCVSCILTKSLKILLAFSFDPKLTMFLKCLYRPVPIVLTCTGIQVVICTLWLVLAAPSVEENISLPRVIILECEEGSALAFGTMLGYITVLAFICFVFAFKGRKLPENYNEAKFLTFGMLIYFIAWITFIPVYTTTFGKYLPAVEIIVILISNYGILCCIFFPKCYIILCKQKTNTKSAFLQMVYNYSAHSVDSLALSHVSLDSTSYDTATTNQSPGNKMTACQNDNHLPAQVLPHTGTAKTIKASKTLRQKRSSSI
Description: pcDNA 5/FRT/TO constructs were isogenically integrated into a FlpIn-TREx-HEK293 cell line (Life Technologies). FlpIn-TREx-HEK293-mGPRC6A and FlpIn-TREx-HEK293-hGPRC6A cells were then selected using 600 μg/ml hygromycin and 5 μg/ml blasticidin and grown in culture medium consisting of Dulbecco’s Modified Eagle Medium (DMEM), supplemented with 10% (v/v) foetal bovine serum (FBS) at 37°C in 5% CO2 and were sub-cultured in a 1:3 ratio every 3–4 days. Cells were cultured overnight in the presence of 1 μg/ml tetracycline to induce GPRC6A expression. […] 48 h after transfection, cells were selected using 3 μg/ml puromycin and grown as above.
Inositol phosphate (IPX) accumulation experiments were performed using the IP-One HTRF® assay kit (Cisbio, France). Briefly, 24h after transfection with G proteins (as above), 10^5 cells were seeded per well in PDL-coated, 96-well white plates and incubated overnight. Cells were then washed 2 x 2h at 37°C in HBSS buffer (pH 7.2) containing 20 mM HEPES, 3.5 mM NaHCO3, 1 mM CaCl2 and 0.1% (w/v) BSA. Test compounds were then prepared in the kit stimulation buffer containing 2 mM CaCl2; cells were then incubated with 70 μl of drugs for 30 min, after which 15 μl of both IP1-D2 and Ab-Cryp were added to the cells, followed by a 1 h incubation at RT. Plates were read using an Envision plate reader (Perkin Elmer), using an HTRF protocol. Results were calculated from the 665nm / 620nm HTRF ratio (Ratio = A665nm/A620nm x 10^4) and expressed as a percentage of the maximal response obtained.
as §2

MIN6 cells = experiment: Insulin release from MIN6 cells; assay type: cell-based, murine; conditions: NPS-2143 10 μM; ^^P < 0.01 vs L-ornithine alone; Fig 6B
Description: MIN6 or βTC-6 cells were seeded in 24-well plates at 170,000 cells per well in DMEM (containing 4.5g/L glucose, 10 mM HEPES, 100 U/ml penicillin, 100 μg/ml streptomycin and 15% de-complemented FBS) and incubated at 37°C / 5% CO2 for 72 h. Cells were then washed with 500 μl PBS and incubated in 500 μl deprivation media (DMEM with zero glucose, 10 mM HEPES, 1 mM Na-pyruvate, 100 U/ml penicillin, 100 μg/ml streptomycin, 15% de-complemented FBS) for 2 h at 37°C. Media was aspirated and after washing with 500 μl PBS, cells were treated with 250 μl of Krebs buffer (250 mM NaCl, 5.9 mM KCl, 1.2 mM MgCl2, 1.3 mM CaCl2, 25 mM HEPES, 0.1% BSA (w/v), and 2 mM or 16.7 mM glucose; pH 7.4) in the presence or absence of test compound. After incubation for 2 h at 37°C, the assay was terminated by placing the plates on ice and supernatants were transferred to a 96-well plate in preparation for insulin ELISA (Alpco) following manufacturer’s instructions. The cell monolayer was washed twice with 500 μl of PBS and then lysed using 250 μl of 1 N NaOH prior to protein measurement by the method of Bradford (1976).
as §2

GLUTag cells [2] = conditions: endogenous; ref [17] (supplement list); cited from earlier work
Text: as §1

Structure (SMILES) | pERK1/2 response (PC-3 cells) | IP-One HTRF response (mC6A; ref [13] (supplement list)) | cAMP response (mC6A; ref [13] (supplement list)) | pERK response (mC6A; ref [13] (supplement list)) | cAMP response (mC6A; ref [18] (supplement list)) | pERK1/2 response (mC6A; ref [18] (supplement list)) | modulation of GPRC6A (GPRC6A) | reversal of L-ornithine-stimulated GLP-1 release (GLUTag cells [1]) | inhibition of L-ornithine-stimulated inositol phosphate accumulation (mGPRC6A (mouse GPRC6A)) | reversal of L-ornithine-stimulated insulin secretion (MIN6 cells) | antagonism, Ca^2+i (GLUTag cells [2]) | antagonism, GLP-1 secretion (GLUTag cells [2])
C[C@]12CC[C@H]3[C@@H](CCC4=CC(=O)CC[C@@]43C)[C@@H]1CC[C@@H]2O [Testosterone] | pERK1/2 – response to Testosterone, L-Arg | No response | no response | No specific response | cAMP – response to Testosterone, L-Arg pERK1/2 – response to Testosterone | cAMP – response to Testosterone, L-Arg pERK1/2 – response to Testosterone |  |  |  |  |  | 
CC(C)(Cc1ccc2ccccc2c1)NC[C@@H](O)COc1cccc(Cl)c1C#N [NPS-2143] |  |  |  |  |  |  | negative allosteric modulators | fully reversed; also recorded: significantly reversed; also recorded: NPS-2143-sensitive | inositol phosphate accumulation in response to L-ornithine was sensitive to application of the GPRC6A antagonist, NPS-2143; also recorded: can be inhibited with the antagonist | fully reversed |  | 
C[C@@H](NCc1cc2ccccc2[nH]1)c1cccc2ccccc12 [calindol] |  |  |  |  |  |  | negative allosteric modulators |  |  |  | antagonist | antagonist
